The values that follow come from patent publication US20210330645A1, “ANTIBACTERIAL COMBINATIONS” (priority 2018, published 2021).

≈ marks a conversion by molar mass, not a printed value. Where “and” joins values, the source holds several entries; their conditions need not be identical. Equal entries are not always repeated. Where only a bound is given, the exact number is not on record here.

One data set concerns Klebsiella pneumoniae. Kind of data set: Checkerboard growth inhibition assay, Klebsiella pneumoniae. In kind it is cell-based. The conditions noted are these: CM4 did not inhibit growth in the range used. Here is the method: (§1) Each combination was performed in triplicate.
(§2) The interaction between two drugs was interpreted as synergistic if FICi was ≤0.5, indifferent if it was >0.5 and ≤4, and antagonistic if it was >4.
Triple synergy is based on the pairwise synergies of the three antibacterials, FZ (a nitrofuran), DOC and Van. To start understanding the triple interaction, a series of experiments analysing pairwise combinations were carried out. […] In contrast, Klebsiella is susceptible to synergistic action of FZ (but not NF and NFZ) with DOC and is resistant to nitrofuran CM4.

For the next data set, the system named is Escherichia coli O157. Kind of data set: Checkerboard growth inhibition assay, E. coli O157. In kind it is cell-based. The conditions noted are these: for FIC of the single component within the triple combination: Van+FZ+DOC at the lowest FICi point. As for the experimental part:
as §1, §2
(§3) A growth inhibition assay was used where a series of concentrations of each antibacterial was applied combined with several concentrations of other two antibacterials (7 concentrations of Van, 8 of FZ and 9 of DOC). […] Starting from the highest concentrations, two-fold dilution series were assayed. E. coli cultures were seeded with ˜10^6 cells/mL and incubated overnight. Optical densities of each combination of concentrations were measured to assess growth and the inhibition relative to the no-antibiotic control were calculated. […] The synergistic interaction has been defined by the Fractional Inhibitory Concentration index (FICi); see the Definitions and Material and Methods sections. FICi represents the sum of the individual Fractional Inhibitory Concentrations (FIC). An FIC in turn is equal to the ratio of concentration that inhibits growth (>90%) in combination vs. alone. For pairwise combinations, the FICi below 0.5 (below 0.25 for each antibiotic) is considered synergistic; by extension for triple combination the FICi should be <0.75 (again below 0.25 for each antibiotic).

A further data set has as its system E. coli K12. Kind of data set: Checkerboard / dose-response growth inhibition assay, E. coli K12. Format: cell-based, Escherichia coli. Conditions: for FIC of the single component within the triple combination: Van+FZ+DOC at the lowest FICi point; for growth inhibition at the concentrations of the time-kill assay: FZ 1.25 μg/ml, alone or in combination. As for the experimental part:
E. coli was grown in 2×YT medium (BD Difco) at 37° C. with shaking at 200 rpm. For preparation of exponential phase cells, fresh overnight culture was 100-fold diluted and incubated to reach the OD600nm of about 0.1-0.2. This cell suspension was then diluted to the desirable concentration depending on specific purposes.
as §1, §2, §3

For data set [1], the system named is E. coli. The conditions noted are these: cited from earlier work.
In data set [2] the test system is E. coli. Kind of data set: Growth inhibition of E. coli by vancomycin (strain not specified).
The conditions of data set [3]: cited from earlier work.
Data set [4] has as its system various Gram-negative bacteria. Kind of data set: Inhibition of various Gram-negative bacteria by vancomycin alone and in combination. Format: cell-based. Here is the method: as §1
Where [5] appears, read: with FZ and DOC, at the lowest FICi point.

For the compound `O=C(NN=Cc1ccc([N+](=O)[O-])o1)c1ccco1` [CM4, N′-[(5-nitrofuran-2-yl)methylidene]furan-2-carbohydrazide], the “concentration range in which growth was not inhibited (up to)” value in the data set on Klebsiella pneumoniae was > 256 µg/mL.

For `C[C@H](CCC(=O)[O-])[C@H]1CC[C@H]2[C@@H]3CC[C@@H]4C[C@H](O)CC[C@]4(C)[C@H]3C[C@H](O)[C@]12C.[Na+]` [DOC, sodium; (4R)-4-[(3R,5R,8R,9S,10S,12S,13R,14S,17R)-3,12-dihydroxy-10,13-dimethyl-2,3,4,5,6,7,8,9,11,12,14,15,16,17-tetradecahydro-1H-cyclopenta[a]phenanthren-17-yl]pentanoate], the “FIC of the single component within the triple combination” value (“FIC” for short) with Escherichia coli O157 was 0.03125; in the data set with E. coli K12, 0.0625. In the data set on E. coli K12 (strain K1508, DOC 2,500 μg/ml), the “growth inhibition at the concentrations of the time-kill assay” value (“growth inhibition at the concentrations” below) is listed as “sub-inhibitory”.

With `O=C1OCCN1/N=C/c1ccc([N+](=O)[O-])o1` [FZ, 3-[(E)-(5-nitrofuran-2-yl)methylideneamino]-1,3-oxazolidin-2-one], the “FIC” value with Escherichia coli O157 was 0.0625. In addition, the “growth inhibition at the concentrations” value in the data set on E. coli K12 (strain BW25113, Van 125 μg/ml) is listed as “sub-inhibitory”; with E. coli K12 (strain K1508, DOC 2,500 μg/ml), “sub-inhibitory”.

With `CN[C@H](CC(C)C)C(=O)N[C@H]1C(=O)N[C@@H](CC(N)=O)C(=O)N[C@H]2C(=O)N[C@H]3C(=O)N[C@H](C(=O)N[C@H](C(=O)O)c4cc(O)cc(O)c4-c4cc3ccc4O)[C@H](O)c3ccc(c(Cl)c3)Oc3cc2cc(c3O[C@@H]2O[C@H](CO)[C@@H](O)[C@H](O)[C@H]2O[C@H]2C[C@](C)(N)[C@H](O)[C@H](C)O2)Oc2ccc(cc2Cl)[C@H]1O` [Van, vancomycin], the “MIC when used on its own” value with E. coli [1] is 250 µg/mL (≈ 173 µM). The figures for the “concentration of Van required to inhibit, used alone” value with Escherichia coli O157 (90% growth inhibition) and with E. coli K12 (90% growth inhibition) were 250 µg/mL and 500 µg/mL, respectively. Also, the “FIC” value in the data set with Escherichia coli O157 and in the data set with E. coli K12 was 0.03125 in each case. Also, the figures for the “concentration of Van required to inhibit, in triple combination” value with Escherichia coli O157 (setting [5]) and with E. coli K12 (setting [5]) were 16 µg/mL and 20 µg/mL, respectively. The “concentration required for E. coli growth inhibition when used on its own” value in the data set on E. coli [2] was > 250 µg/mL. For the same compound, in the data set with E. coli [2] (E. coli K12 and O157, with FZ and DOC), the “Van concentration in triple combination at several points in the graph” value was 16 µg/mL and 10 µg/mL. Moreover, the “growth inhibition at the concentrations” value with E. coli K12 (strain BW25113, Van 125 μg/ml) was “sub-inhibitory”. Further, the known nephrotoxic concentrations in data set [3] (depending on the mode and length of treatment) is 30 µg/mL and 20 µg/mL. Moreover, the “concentration considered below nephrotoxic level (sub-toxic)” value in data set [3] (recommended therapeutic concentration, 6-day treatment) is “below 20 μg/mL”. Also, the “concentration of vancomycin required to inhibit, before lowering (alone)” value in data set [4] (some variation between strains) is on record as “about 500 μg/mL”. Moreover, in data set [4] (with a nitrofuran and DOC), the “bactericidal concentration of vancomycin in the triple combination” value came out at 15.6 µg/mL.
